Experimental data as given in US12421208B2, “Chemical compounds” (ASTRAZENECA AB, priority 2020, dated 2025).

Tests used:
PARP5a = PARP5a (Homo sapiens, UniProt O95271); assay: PARP fluorescence anisotropy binding assay, PARP5a binding domain; settings: recombinant PARP5a binding domain
Text: (§1) PARP Fluorescence Anisotropy Binding Assays

hERG = hERG (Homo sapiens, UniProt Q12809); assay: hERG inhibition
Text: It is well known that blockade of the cardiac ion channel coded by human ether-n-gogo-related gene (hERG) is a risk factor in drug discovery and development. Blockage of hERG can cause safety problems such as cardiac arrhythmia. Advantageously, the compounds of Formula I have low hERG activity.

PARP3 = target: T1, PARP3 (Homo sapiens, UniProt Q9Y6F1); assay: PARP fluorescence anisotropy binding assay, PARP3; settings: recombinant full length PARP3
T1 construct: Recombinant full length PARP3 protein
T1 sequence (Q9Y6F1 1-533): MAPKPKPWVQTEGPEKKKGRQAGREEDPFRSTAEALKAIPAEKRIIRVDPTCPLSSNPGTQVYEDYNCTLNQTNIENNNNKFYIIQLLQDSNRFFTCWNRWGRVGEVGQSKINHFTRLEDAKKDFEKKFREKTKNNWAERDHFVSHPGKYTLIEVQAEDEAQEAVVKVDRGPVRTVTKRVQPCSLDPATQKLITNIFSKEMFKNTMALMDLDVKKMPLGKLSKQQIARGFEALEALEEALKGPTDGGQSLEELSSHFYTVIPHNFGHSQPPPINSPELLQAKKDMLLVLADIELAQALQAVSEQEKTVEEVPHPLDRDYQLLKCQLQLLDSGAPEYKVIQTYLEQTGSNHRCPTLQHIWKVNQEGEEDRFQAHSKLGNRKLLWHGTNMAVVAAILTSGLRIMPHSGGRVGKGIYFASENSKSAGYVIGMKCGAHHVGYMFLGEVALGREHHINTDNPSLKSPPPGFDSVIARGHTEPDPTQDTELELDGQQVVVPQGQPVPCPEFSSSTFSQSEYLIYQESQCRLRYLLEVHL
Text: as §1

PARP6 = target: T2, PARP6 (Homo sapiens, UniProt Q2NL67); assay: PARP fluorescence anisotropy binding assay, PARP6; settings: recombinant full length GST tagged PARP6
T2 construct: Recombinant full length GST tagged PARP6 protein; GST
T2 sequence (Q2NL67 whole entry): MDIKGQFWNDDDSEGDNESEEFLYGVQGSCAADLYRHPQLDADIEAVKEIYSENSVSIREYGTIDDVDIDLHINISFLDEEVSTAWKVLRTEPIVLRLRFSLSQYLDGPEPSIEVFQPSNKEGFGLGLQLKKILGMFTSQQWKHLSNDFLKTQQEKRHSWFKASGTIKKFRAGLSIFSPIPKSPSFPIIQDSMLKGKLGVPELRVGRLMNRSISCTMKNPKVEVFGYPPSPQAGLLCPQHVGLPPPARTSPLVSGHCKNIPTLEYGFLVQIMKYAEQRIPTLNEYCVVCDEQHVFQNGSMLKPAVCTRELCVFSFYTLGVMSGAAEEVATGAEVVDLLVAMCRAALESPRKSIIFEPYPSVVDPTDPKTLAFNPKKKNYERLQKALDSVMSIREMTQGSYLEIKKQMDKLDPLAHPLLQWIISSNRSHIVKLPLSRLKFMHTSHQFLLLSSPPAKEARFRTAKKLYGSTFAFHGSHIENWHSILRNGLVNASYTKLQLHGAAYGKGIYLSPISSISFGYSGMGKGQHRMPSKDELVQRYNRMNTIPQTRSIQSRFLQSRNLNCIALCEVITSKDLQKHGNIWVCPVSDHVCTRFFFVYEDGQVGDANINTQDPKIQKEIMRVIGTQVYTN
Experimental: as §1
(§2) Recombinant full length GST tagged PARP6 protein was diluted to 160 nM with 50 mM Tris pH 8, 0.001% Triton X100, 10 mM MgCl2, 150 mM NaCl and incubated for four hours with an equivalent volume of 6 nM fluorescent probe diluted with 50 mM Tris pH 8, 0.001% Triton X100, 10 mM MgCl2, 150 mM NaCl. The final DMSO concentration of the probe was kept below 1% (v/v).
Fluorescence anisotropy of the probe when bound to the proteins was measured using a BMG Pherastar FSX© in the presence of test compounds or solvent control and the effect on anisotropy determined. % inhibition values for different test compound concentrations were calculated and fitted to a four parameter logistic plot in order to determine the IC50 value. Where necessary, the compound Ki can be determined from the IC50 value using a Munson Rodbard equation defined in Anal Biochem. 1980 Sep. 1; 107(1):220-39 and is based on the known KD of the probe binding to the relevant PARP protein

BRCA2 (−/−) DLD1 cells = assay: PARP proliferation assay (7 day compound dosing), BRCA2 (−/−) DLD1; assay type: cell-based; settings: Homo sapiens, DLD-1, 168 h, BRCA2 −/− DLD-1 cells, 7 day dosing; read-out: BRCA2 −/− DLD-1 prolif. 7 d IC50
Experimental: (§3) PARP Proliferation Assay (7 Day Compound Dosing)
(§4) DLD1 and BRCA2 (−/−) DLD1 cells were harvested to a density of 5000 cells/ml and 2.5E4 cells/ml respectively in complete media, 40 μL/well seeded into 384-well plates (Greiner, Kremsmunster, Austria; 781090) using a Multidrop Combi then incubated at 37° C., 5% CO2 overnight. Next day (Day 1) using a Multidrop Combi add sytoxgreen (5 ul, 2 uM) and saponin (10 ul, 0.25% stock) to a day 0 plate, seal the plate using a black adhesive lid and incubate for >3 h at rt. Cells were imaged using Cell Insight (Thermo Fisher) fitted with a 4× objective. Test compounds are added using an Echo 555 and placed in incubator maintained at 37° C., 5% CO2 and incubated for 7 days. On Day 8 add sytox green (5 ul, 2 uM) and then saponin (10 ul, 0.25% stock) to plates, seal the plate using a black adhesive lid and incubate for >3 h at rt. Read all cells on the Cell Insight with 4× Objective. The rate of proliferation is determined in Genedata by assessing the total cell number output from the Cell Insight for Day 0 and Day 8 plates.

DLD1 cells = assay: PARP proliferation assay (7 day compound dosing), WT DLD1; assay type: cell-based; settings: Homo sapiens, 168 h; WT DLD-1 cells, 7 day dosing; read-out: WT DLD-1 prolif. 7 d IC50
Experimental: as §3, §4

PARP2 = target: T3, PARP2 (Homo sapiens, UniProt Q9UGN5); assay: PARP fluorescence anisotropy binding assay, PARP2; settings: recombinant full length PARP2
T3 construct: Recombinant full length PARP2 protein
T3 sequence (Q9UGN5 whole entry): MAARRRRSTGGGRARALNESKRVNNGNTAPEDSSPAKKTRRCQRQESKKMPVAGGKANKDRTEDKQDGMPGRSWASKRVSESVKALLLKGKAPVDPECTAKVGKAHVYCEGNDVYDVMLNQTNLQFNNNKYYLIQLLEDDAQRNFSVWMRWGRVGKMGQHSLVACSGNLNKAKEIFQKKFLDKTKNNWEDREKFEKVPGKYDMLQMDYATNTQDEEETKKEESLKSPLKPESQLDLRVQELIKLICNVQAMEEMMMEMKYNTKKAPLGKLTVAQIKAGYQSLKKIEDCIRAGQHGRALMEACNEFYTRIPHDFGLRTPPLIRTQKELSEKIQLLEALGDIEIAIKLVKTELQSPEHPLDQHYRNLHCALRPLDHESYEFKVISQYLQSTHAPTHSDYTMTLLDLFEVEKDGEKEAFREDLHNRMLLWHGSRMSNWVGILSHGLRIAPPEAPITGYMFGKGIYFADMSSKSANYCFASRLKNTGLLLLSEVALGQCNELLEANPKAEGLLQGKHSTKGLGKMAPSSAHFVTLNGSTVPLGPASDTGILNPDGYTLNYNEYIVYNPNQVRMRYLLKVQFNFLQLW
Experimental: as §1
as §2, with “PARP2” for “GST tagged PARP6”, “6” for “160”, “2” for “6”
Fluorescence anisotropy of the probe when bound to the proteins was measured using a BMG Pherastar FSX© in the presence of test compounds or solvent control and the effect on anisotropy determined. % inhibition values for different test compound concentrations were calculated and fitted to a four parameter logistic plot in order to determine the IC50 value.

MDR1 and BCRP = assay: In vitro human transporter efflux (MDCK-MDR1-BCRP); assay type: in vitro ADME; settings: human, pH 7.4, Papp(B to A)/Papp(A to B), 1 or 0.1 μM, 90-min incubation
Experimental: In Vitro Human Transporter Efflux
MDCKII cells expressing MDR1 and BCRP were seeded onto polyethylene membranes in 96-well Transwell insert systems at a density to form a confluent cell monolayer. […] The final percent volume of the organic solvent was less than 1%. Permeation of the test compounds from A to B direction and from B to A direction was determined over a 90-min incubation at 37° C. and 5% CO2 with a relative humidity of 95%. At the end of the incubation, samples from the apical and basolateral side were taken and then precipitated with cold acetonitrile containing internal standard. After centrifugation at 4000 rpm, the supernatant was diluted with 0.1% formic acid aqueous solution and quantified by LC-MS/MS. The integrity of the cell monolayers was confirmed by using the marker Lucifer yellow.
(1) The efflux ratio was calculated using the following equation Efflux ratio=Papp(B to A)/Papp(A to B)
(2) where dCr/dt is the cumulative concentration of the compound in the receiver chamber as a function of time (in μM/s); Vr is the solution volume in the receiver chamber (0.1 ml on the apical side and 0.3 ml on the basolateral side); A is the surface area for the transport, that is, 0.11 cm2 for the area of the monolayer; and CO is the initial concentration in the donor chamber (in μM).

Sequence of PARP5a (O95271 1112-1317): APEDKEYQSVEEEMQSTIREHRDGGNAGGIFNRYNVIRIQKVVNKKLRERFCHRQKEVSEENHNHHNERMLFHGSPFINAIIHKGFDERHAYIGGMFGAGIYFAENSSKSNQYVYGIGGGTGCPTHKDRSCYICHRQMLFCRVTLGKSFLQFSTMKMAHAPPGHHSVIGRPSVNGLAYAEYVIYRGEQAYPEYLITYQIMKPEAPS
Sequence of hERG (Q12809 whole entry): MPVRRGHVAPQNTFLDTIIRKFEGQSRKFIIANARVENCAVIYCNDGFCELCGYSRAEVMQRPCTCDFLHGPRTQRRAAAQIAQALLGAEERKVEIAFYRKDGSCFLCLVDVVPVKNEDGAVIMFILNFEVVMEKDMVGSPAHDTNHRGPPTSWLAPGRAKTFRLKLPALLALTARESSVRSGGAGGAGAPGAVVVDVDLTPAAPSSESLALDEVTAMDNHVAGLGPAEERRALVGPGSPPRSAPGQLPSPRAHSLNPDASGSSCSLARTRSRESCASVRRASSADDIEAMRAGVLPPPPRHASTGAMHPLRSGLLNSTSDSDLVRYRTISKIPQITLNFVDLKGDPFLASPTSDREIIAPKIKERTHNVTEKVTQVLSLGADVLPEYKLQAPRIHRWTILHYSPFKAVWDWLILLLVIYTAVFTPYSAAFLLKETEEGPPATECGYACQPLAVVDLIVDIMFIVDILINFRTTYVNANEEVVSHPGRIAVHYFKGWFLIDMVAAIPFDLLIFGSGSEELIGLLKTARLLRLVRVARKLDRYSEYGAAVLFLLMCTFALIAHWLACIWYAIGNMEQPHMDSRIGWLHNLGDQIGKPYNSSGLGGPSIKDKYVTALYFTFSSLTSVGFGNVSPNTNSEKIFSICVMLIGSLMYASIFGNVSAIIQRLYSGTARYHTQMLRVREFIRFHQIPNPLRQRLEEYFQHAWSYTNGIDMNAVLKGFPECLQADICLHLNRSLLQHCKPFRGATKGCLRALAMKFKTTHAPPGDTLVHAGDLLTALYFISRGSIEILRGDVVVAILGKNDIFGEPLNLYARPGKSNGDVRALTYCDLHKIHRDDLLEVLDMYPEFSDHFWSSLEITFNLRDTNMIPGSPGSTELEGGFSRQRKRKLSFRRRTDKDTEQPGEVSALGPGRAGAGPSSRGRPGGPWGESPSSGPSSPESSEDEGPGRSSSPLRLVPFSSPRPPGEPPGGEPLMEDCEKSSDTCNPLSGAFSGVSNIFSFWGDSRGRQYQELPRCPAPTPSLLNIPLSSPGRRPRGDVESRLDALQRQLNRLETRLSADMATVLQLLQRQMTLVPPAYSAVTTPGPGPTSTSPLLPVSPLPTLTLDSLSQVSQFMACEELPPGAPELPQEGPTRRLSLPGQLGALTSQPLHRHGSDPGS

Compound	IC50 (PARP5a) [µM]	IC50 (hERG) [µM]	IC50 (PARP3) [µM]	IC50 (PARP6) [µM]	IC50 (BRCA2 (−/−) DLD1 cells) [nM]	IC50 (DLD1 cells) [µM]	IC50 (PARP2) [µM]	efflux ratio at 90 min (MDR1 and BCRP)
CNC(=O)c1ccc(N2CCN(Cc3ccc4nc(C)c(=O)[nH]c4c3F)CC2)c(F)n1 [Example 20, 6-fluoro-5-[4-[(5-fluoro-2-methyl-3-oxo-4H-quinoxalin-6-yl)methyl]piperazin-1-yl]-N-methyl-pyridine-2-carboxamide]	> 100	> 40	> 100	> 100	–	–	–	–
CCc1nc2ccc(CN3CCN(c4ccc(C(=O)NC)nc4Cl)CC3)c(Cl)c2[nH]c1=O [Example 8, 6-chloro-5-[4-[(5-chloro-2-ethyl-3-oxo-4H-quinoxalin-6-yl)methyl]piperazin-1-yl]-N-methyl-pyridine-2-carboxamide]	> 100	> 40	> 100	> 100	12	> 7.9	> 66	–
CCc1nc2ccc(CN3CCN(c4ccc(C(=O)NC)nc4F)CC3)c(Cl)c2[nH]c1=O [Example 9, 5-[4-[(5-chloro-2-ethyl-3-oxo-4H-quinoxalin-6-yl)methyl]piperazin-1-yl]-6-fluoro-N-methyl-pyridine-2-carboxamide]	> 100	> 40	> 100	> 100	10	> 10	> 100	–
CCc1nc2ccc(CN3CCN(c4ccc(C(=O)NC)nc4F)CC3)c(F)c2[nH]c1=O [Example 27, 5-[4-[(2-ethyl-5-fluoro-3-oxo-4H-quinoxalin-6-yl)methyl]piperazin-1-yl]-6-fluoro-N-methyl-pyridine-2-carboxamide]	–	> 40	–	–	6	6.3	–	–
CNC(=O)c1ccc(N2CCN(Cc3ccc4nc(C)c(=O)[nH]c4c3C)CC2)c(C)n1 [Example 4, 5-[4-[(2,5-dimethyl-3-oxo-4H-quinoxalin-6-yl)methyl]piperazin-1-yl]-N,6-dimethyl-pyridine-2-carboxamide]	–	> 40	–	–	81	> 14	–	–
CNC(=O)c1ccc(N2CCN(Cc3ccc4nc(C)c(=O)[nH]c4c3Cl)CC2)c(F)n1 [Example 17, 5-[4-[(5-chloro-2-methyl-3-oxo-4H-quinoxalin-6-yl)methyl]piperazin-1-yl]-6-fluoro-N-methyl-pyridine-2-carboxamide]	> 100	> 40	> 100	> 100	1050	> 10	> 100	–
CNC(=O)c1ccc(N2CCN(Cc3ccc4nc(C)c(=O)[nH]c4c3C)CC2)c(Cl)n1 [Example 3, 6-chloro-5-[4-[(2,5-dimethyl-3-oxo-4H-quinoxalin-6-yl)methyl]piperazin-1-yl]-N-methyl-pyridine-2-carboxamide]	–	> 40	–	–	8	25	–	–
CCc1nc2ccc(CN3CCN(c4ccc(C(=O)NC)nc4)CC3)c(Cl)c2[nH]c1=O [Example 10, 5-[4-[(5-chloro-2-ethyl-3-oxo-4H-quinoxalin-6-yl)methyl]piperazin-1-yl]-N-methyl-pyridine-2-carboxamide]	> 100	> 40	> 100	> 100	> 30000	> 30	> 100	–
CNC(=O)c1ccc(N2CCN(Cc3ccc4nc(C(F)(F)F)c(=O)[nH]c4c3F)CC2)c(F)n1 [Example 48, 6-fluoro-5-[4-[[5-fluoro-3-oxo-2-(trifluoromethyl)-4H-quinoxalin-6-yl]methyl]piperazin-1-yl]-N-methyl-pyridine-2-carboxamide]	–	> 40	–	–	18	27	–	–
CCc1nc2ccc(CN3CCN(c4ccc(C(=O)NC)nc4)CC3)c(F)c2[nH]c1=O [Example 29, 5-[4-[(2-ethyl-5-fluoro-3-oxo-4H-quinoxalin-6-yl)methyl]piperazin-1-yl]-N-methyl-pyridine-2-carboxamide]	–	> 40	–	–	5	> 10	–	–
CNC(=O)c1ccc(N2CCN(Cc3ccc4nc(C)c(=O)[nH]c4c3C)CC2)c(F)n1 [Example 1, 5-[4-[(2,5-dimethyl-3-oxo-4H-quinoxalin-6-yl)methyl]piperazin-1-yl]-6-fluoro-N-methyl-pyridine-2-carboxamide]	–	> 40	–	–	14	24	–	–
CNC(=O)c1ccc(N2CCN(Cc3ccc4nc(C)c(=O)[nH]c4c3Cl)CC2)cn1 [Example 16, 5-[4-[(5-chloro-2-methyl-3-oxo-4H-quinoxalin-6-yl)methyl]piperazin-1-yl]-N-methyl-pyridine-2-carboxamide]	> 29	> 40	> 100	> 100	3620	> 30	> 100	–
CCc1nc2ccc(CN3CCN(c4ccc(C(=O)NC)nc4C)CC3)c(Cl)c2[nH]c1=O [Example 11, 5-[4-[(5-chloro-2-ethyl-3-oxo-4H-quinoxalin-6-yl)methyl]piperazin-1-yl]-N,6-dimethyl-pyridine-2-carboxamide]	> 100	> 40	> 100	> 100	9	> 30	> 100	–
CNC(=O)c1ccc(N2CCN(Cc3ccc4nc(C(C)F)c(=O)[nH]c4c3F)CC2)c(C)n1 (single isomer, unassigned) [Example 14, 5-[4-[[5-fluoro-2-[(1S OR 1R)-1-fluoroethyl]-3-oxo-4H-quinoxalin-6-yl]methyl]piperazin-1-yl]-N,6-dimethyl-pyridine-2-carboxamide]	–	–	–	–	–	–	–	3.7
CNC(=O)c1ccc(N2CCN(Cc3ccc4nc(C)c(=O)[nH]c4c3Cl)CC2)c(C)n1 [Example 18, 5-[4-[(5-chloro-2-methyl-3-oxo-4H-quinoxalin-6-yl)methyl]piperazin-1-yl]-N,6-dimethyl-pyridine-2-carboxamide]	> 100	–	> 100	> 100	4330	21	> 100	–
CNC(=O)c1ccc(N2CCN(Cc3ccc4nc(C)c(=O)[nH]c4c3F)CC2)c(Cl)n1 [Example 30, 6-chloro-5-[4-[(5-fluoro-2-methyl-3-oxo-4H-quinoxalin-6-yl)methyl]piperazin-1-yl]-N-methyl-pyridine-2-carboxamide]	–	> 40	–	–	3	> 30	–	–
